Assay results: the supplement of paper PMC11208160

Assay: recombinant barcode read abundance after kanamycin selection (control-corrected) (log10(CPM+1)); higher = more efficient recombination; sequences stand for … in AGTGCAGAGAAAATCGGCCAGTTTTCTCTGCCTGCAGTCCGCATGCCGT…AGATTTATGCAGCGGACTGCCTTTCTCCCAAAGTGATAAACCGGACAGTATCATGGACCGGTTTTCCCGGTAATCCGTATTTGCAAGGTTGGTTTCACT; site = the 11-nt target
How it was run: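 Recombination efficiency draws on barcodes counted at recombinant junctions in a pooled E. coli screen of targets paired with IS621 bridge RNA target-binding loops. The counts were converted to counts per million, averaged and corrected against the chloramphenicol/ampicillin LB agar control, then reported as log10(CPM+1). Selection plates held chloramphenicol/ampicillin/kanamycin with 0.1 mM IPTG, with two replicates per condition.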
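Note: IS621 recombinase and bridge RNA in Escherichia coli cells.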

Sequence | recombinant barcode read abundance (log10)
TCATATTCTTGGGTTCTAACCTGTTGCCT (site TCAAATTCTAG) | 0.17
TCATATTCTTGGGTTCTAACCTGTTGCCT (site TCACATTCTAG) | 0.0604
TCATATTCTTGGGTTCTAACCTGTTGCCT (site TCAGATTCTAG) | 0.069
TCATATTCTTGGGTTCTAACCTGTTGCCT (site TCATATTCTAG) | 0.0782
TCATGAACTTGGGTTCTAACCTGTTGCCT (site TCATGAACTAG) | 0.256
TCATGAACTTGGGTTCTAACCTGTTGCCT (site TTATGATCTAG) | 0.0186
TCATTAGCTTGGGTTCTAACCTGTTGCCG (site GGGCATCCTAT) | 0.0935
TCATTAGCTTGGGTTCTAACCTGTTGCCG (site TCATTAGCTCG) | 0.315
TCATTCGCTTGGGTTCTAACCTGTTGCCT (site TCATTCGCTAG) | 0.857
TCATTCGCTTGGGTTCTAACCTGTTGCCT (site TCCTTAGCTAG) | 0.186
TCCAAACCTTGGGTTCTAACCTGTTGCGG (site TCCAAACCTCC) | 2.04
TCCAAACCTTGGGTTCTAACCTGTTGCGG (site TCCAACACTCC) | 0.00629
TCCAGTCCTTGGGTTCTAACCTGTTGCTA (site TCCAGTCCTTA) | 0.688
TCCAGTCCTTGGGTTCTAACCTGTTGCTA (site TCCATCCCTTA) | 0.0632
TCCCAAACTTGGGTTCTAACCTGTTGCAC (site CTAACTGCTAC) | 0.0667
TCCCAAACTTGGGTTCTAACCTGTTGCAC (site TCCCAAACTGT) | 0.657
TCCCACACTTGGGTTCTAACCTGTTGCCA (site ACCCACACTCG) | 0.129
TCCCACACTTGGGTTCTAACCTGTTGCCA (site TCCCACACTTG) | 1.33

Sequence | recombinant barcode read abundance (log10)
TCCCAGCCTTGGGTTCTAACCTGTTGCTG (site TCCCAGCCTCA) | 0.0849
TCCCAGCCTTGGGTTCTAACCTGTTGCTG (site TCCCATCCTAA) | 0.274
TCCCATCCTTGGGTTCTAACCTGTTGCTT (site TCCCAGCCTCA) | 0.524
TCCCATCCTTGGGTTCTAACCTGTTGCTT (site TCCCATCCTAA) | 0.114
TCCCATGCTTGGGTTCTAACCTGTTGCCT (site TCCCATACTAG) | 0.19
TCCCATGCTTGGGTTCTAACCTGTTGCCT (site TCCCATCCTAG) | 0.151
TCCCATGCTTGGGTTCTAACCTGTTGCCT (site TCCCATGCTAG) | 1.17
TCCCATGCTTGGGTTCTAACCTGTTGCCT (site TCCCATTCTAG) | 0.0569
TCCCCGACTTGGGTTCTAACCTGTTGCCG (site TCCCCGACTCG) | 1.03
TCCCCGACTTGGGTTCTAACCTGTTGCCG (site TCGCCTACTCG) | 0.03
TCCCCGGCTTGGGTTCTAACCTGTTGCGG (site CAAAACTCTAA) | 0.262
TCCCCGGCTTGGGTTCTAACCTGTTGCGG (site TCCCCGGCTCC) | 1.48
TCCCGATCTTGGGTTCTAACCTGTTGCCT (site TCCCGAACTAG) | 0.0997
TCCCGATCTTGGGTTCTAACCTGTTGCCT (site TCCCGACCTAG) | 0.521
TCCCGATCTTGGGTTCTAACCTGTTGCCT (site TCCCGAGCTAG) | 0.065
TCCCGATCTTGGGTTCTAACCTGTTGCCT (site TCCCGATCTAG) | 0.502
TCCCTTCCTTGGGTTCTAACCTGTTGCCT (site TCCCGTCCTAG) | 0.0443
TCCCTTCCTTGGGTTCTAACCTGTTGCCT (site TCCCTTCCTAG) | 0.365
